This is an account of results in patent US20250313556A1, “CERTAIN CHEMICAL ENTITIES, COMPOSITIONS, AND METHODS” (MRJA THERAPEUTICS, INC., priority 2022, published 2025).

This assay concerns the target c-KIT (Homo sapiens, UniProt P10721). As to the kind of experiment: c-KIT ADP-Glo biochemical assay. To be noted: class ranges. The method, then:
The inhibitory activity against c-KIT was measured using ADP-Glo assay. The percent (%) inhibition at each concentration of compound is calculated based on and relative to the luminescence signal in the Max and Min control wells contained within each assay plate. The Max control wells contain enzyme and substrate as 0% inhibition, and the Min control wells only contain substrate without enzyme as 100% inhibition. The concentrations and % inhibition values for tested compounds are plotted and the concentration of compound required for 50% inhibition (IC50) is determined with a four-parameter logistic dose response equation. The ability of the compounds in Table 1 to inhibit c-KIT was determined.

Sequence of c-KIT (P10721 26-976): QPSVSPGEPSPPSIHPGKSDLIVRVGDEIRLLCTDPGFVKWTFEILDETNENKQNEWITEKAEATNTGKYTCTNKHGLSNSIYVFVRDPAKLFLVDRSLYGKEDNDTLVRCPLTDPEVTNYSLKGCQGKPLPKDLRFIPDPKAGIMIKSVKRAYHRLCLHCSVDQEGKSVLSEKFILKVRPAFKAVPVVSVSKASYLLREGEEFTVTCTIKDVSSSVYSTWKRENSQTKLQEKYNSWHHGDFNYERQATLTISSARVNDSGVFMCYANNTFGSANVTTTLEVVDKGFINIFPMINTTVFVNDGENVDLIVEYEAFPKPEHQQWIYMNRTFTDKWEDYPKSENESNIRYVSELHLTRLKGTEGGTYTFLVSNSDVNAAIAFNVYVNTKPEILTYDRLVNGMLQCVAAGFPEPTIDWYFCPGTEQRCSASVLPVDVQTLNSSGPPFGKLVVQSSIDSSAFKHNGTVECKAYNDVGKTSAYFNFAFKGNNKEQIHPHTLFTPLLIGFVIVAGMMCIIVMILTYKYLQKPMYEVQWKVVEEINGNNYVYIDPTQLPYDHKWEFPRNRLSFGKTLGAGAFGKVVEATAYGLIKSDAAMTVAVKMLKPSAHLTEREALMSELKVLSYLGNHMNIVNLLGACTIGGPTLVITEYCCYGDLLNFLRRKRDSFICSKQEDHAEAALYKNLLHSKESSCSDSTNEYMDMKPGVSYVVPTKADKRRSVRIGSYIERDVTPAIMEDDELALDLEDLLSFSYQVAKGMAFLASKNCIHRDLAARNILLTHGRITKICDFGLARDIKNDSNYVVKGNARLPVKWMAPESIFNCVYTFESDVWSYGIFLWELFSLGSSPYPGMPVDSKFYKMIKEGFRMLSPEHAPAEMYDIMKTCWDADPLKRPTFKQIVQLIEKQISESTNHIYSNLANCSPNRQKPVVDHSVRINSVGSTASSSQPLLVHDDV

The molecule `Cc1c(F)cc(-c2noc(C3CC(F)(F)C3)n2)cc1NC(=O)c1cnc2ccc(N3CCOCC3)cn12` [Compound C007, N-(5-(5-(3,3-difluorocyclobutyl)-1,2,4-oxadiazol-3-yl)-3-fluoro-2-methylphenyl)-6-morpholinoimidazo[1,2-a]pyridine-3-carboxamide] showed an IC50 of 100 to 1000 nM.
The molecule `COC(=O)N1CC(c2nc(-c3cc(F)c(C)c(NC(=O)c4cnc5cc(F)ccn45)c3)no2)C1` [Compound C024, methyl 3-(3-(3-fluoro-5-(7-fluoroimidazo[1,2-a]pyridine-3-carboxamido)-4-methylphenyl)-1,2,4-oxadiazol-5-yl)azetidine-1-carboxylate] displayed a concentration for half-maximal inhibition (IC50) of 100 to 1000 nM.
For `COC(=O)N1CCC[C@@H](c2nc(-c3cc(F)c(C)c(NC(=O)c4cnc5ccccn45)c3)no2)C1` [Compound C049, methyl (R)-3-(3-(3-fluoro-5-(imidazo[1,2-a]pyridine-3-carboxamido)-4-methylphenyl)-1,2,4-oxadiazol-5-yl)piperidine-1-carboxylate] the value was 100 to 1000 nM; for `COC(=O)N1CC(c2nc(-c3cc(F)c(C)c(NC(=O)c4cnc5cc(N6CCOCC6)ccn45)c3)no2)C1` [Compound C015, methyl 3-(3-(3-fluoro-4-methyl-5-(7-morpholinoimidazo[1,2-a]pyridine-3-carboxamido)phenyl)-1,2,4-oxadiazol-5-yl)azetidine-1-carboxylate], at most 100 nM.
